Measurements: patent publication US7772241B2, “Variolin derivatives and their use as antitumor agents” (Pharma Mar S.A., priority 2001, dated 2010)
Like-named read-outs stand apart in the source and are kept apart here.

Legend:
[1] = tested on: HMEC1; assay: Inhibition of cells growth by colorimetric (SRB) assay, HMEC1; settings: for GI50: Homo sapiens, HMEC-1, 48 h; for TGI H-MEC-1 / H-MEC-1 TGI: SRB assay, 48 hours exposure, in M (unit assumed)
[2] = as above; settings: human, HMEC1 cells, 48 hours exposure
[3] = tested on: K-562; assay: Inhibition of cells growth by colorimetric (SRB) assay, K-562
Procedure, shortened: (§1)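 Human tumour cells seeded at 5×10^3/well in RPMI 1640 10% FBS, attached 18 h, then exposed 48 h to samples at 10 to 10^−8 μg/ml in DMSO/EtOH/PBS (0.5:0.5:99). Growth read by SRB staining after TCA fixation, OD 490 nm, triplicate wells; GI, TGI and LC derived.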

[4] = tested on: LoVo-Dox; assay: Inhibition of cells growth by colorimetric (SRB) assay, LoVo-Dox
Procedure, shortened: as §1

[5] = tested on: IGROV-1; assay: Inhibition of cells growth by colorimetric (SRB) assay, IGROV-1
Procedure, shortened: as §1

[6] = tested on: DU-145; assay: Inhibition of cells growth by colorimetric (SRB) assay, DU-145
Procedure, shortened: as §1

[7] = tested on: LoVo; assay: Inhibition of cells growth by colorimetric (SRB) assay, LoVo
Procedure, shortened: as §1

[8] = tested on: HT-29; assay: Inhibition of cells growth by colorimetric (SRB) assay, HT-29; settings: for GI50 / CC50: Homo sapiens, HT-29, 48 h
Procedure, shortened: as §1

[9] = tested on: A-549; assay: Inhibition of cells growth by colorimetric (SRB) assay, A-549; settings: for GI50 / CC50: Homo sapiens, A549, 48 h
Procedure, shortened: as §1

[10] = tested on: LNCaP; assay: Inhibition of cells growth by colorimetric (SRB) assay, LNCaP
Procedure, shortened: as §1

[11] = tested on: SK-MEL-28; assay: Inhibition of cells growth by colorimetric (SRB) assay, SK-MEL-28
Procedure, shortened: as §1

[12] = tested on: IGROV-ET; assay: Inhibition of cells growth by colorimetric (SRB) assay, IGROV-ET
Procedure, shortened: as §1

[13] = tested on: SK-BR-3; assay: Inhibition of cells growth by colorimetric (SRB) assay, SK-BR-3
Procedure, shortened: as §1

[14] = tested on: PANC-1; assay: Inhibition of cells growth by colorimetric (SRB) assay, PANC-1
Procedure, shortened: as §1

[15] = read-out: GI50 H-MEC-1, SRB assay, 48 hours exposure
[16] = read-out: GI50 A-549, SRB assay, 48 hours exposure
[17] = read-out: H-MEC-1 GI50, SRB assay, 48 hours exposure
[18] = read-out: HT-29 GI50, SRB assay, 48 hours exposure
[19] = read-out: HT-29 LC50, SRB assay, 48 hours exposure
[20] = read-out: A-549 GI50, SRB assay, 48 hours exposure
[21] = read-out: A-549 LC50, SRB assay, 48 hours exposure

With COc1nccc(-c2c3c(N)ccnc3n3c(N)nccc23)n1 [Compound 88] the GI50 [1, 15] was 0.99 µM, the “TGI H-MEC-1” value [1] was 9.71E−06 and the CC50 at 48 h ([2]; LC50 H-MEC-1, SRB assay) was 18.7 µM. The GI50 ([3]; Homo sapiens, K562, 48 h, read-out: GI50 K-562, SRB assay, 48 hours exposure) was 6.09 µM, the CC50 ([3]; Homo sapiens, K562, 48 h, read-out: LC50 K-562, SRB assay, 48 hours exposure) was 18.7 µM and the “TGI K-562” value ([3]; SRB assay, 48 hours exposure) was 1.87E−05. For the same compound, the GI50 ([4]; Homo sapiens, 48 h, read-out: GI50 LOVO-DOX, SRB assay, 48 hours exposure) was 1.06 µM, the CC50 ([4]; Homo sapiens, 48 h, read-out: LC50 LOVO-DOX, SRB assay, 48 hours exposure) was 15.1 µM and the “TGI LOVO-DOX” value ([4]; SRB assay, 48 hours exposure) was 3.87E−06. The GI50 ([5]; Homo sapiens, IGROV-1, 48 h, read-out: GI50 IGROV, SRB assay, 48 hours exposure) was 3.23 µM, the CC50 ([5]; Homo sapiens, IGROV-1, 48 h, read-out: LC50 IGROV, SRB assay, 48 hours exposure) was 18.7 µM and the “TGI IGROV” value ([5]; SRB assay, 48 hours exposure) was 9.58E−06. For the same compound, the GI50 ([6]; Homo sapiens, DU-145, 48 h, read-out: GI50 DU-145, SRB assay, 48 hours exposure) was 0.902 µM, the CC50 ([6]; Homo sapiens, DU-145, 48 h, read-out: LC50 DU-145, SRB assay, 48 hours exposure) was 18.7 µM and the “TGI DU-145” value ([6]; SRB assay, 48 hours exposure) was 1.87E−05. For the same compound, the GI50 ([7]; Homo sapiens, LoVo, 48 h, read-out: GI50 LOVO, SRB assay, 48 hours exposure) was 1.34 µM, the CC50 ([7]; Homo sapiens, LoVo, 48 h, read-out: LC50 LOVO, SRB assay, 48 hours exposure) was 12.9 µM and the “TGI LOVO” value ([7]; SRB assay, 48 hours exposure) was 4.37E−06. For the same compound, the GI50 ([8]; read-out: GI50 HT-29, SRB assay, 48 hours exposure) was 1.03 µM, the CC50 ([8]; read-out: LC50 HT-29, SRB assay, 48 hours exposure) was 18.7 µM and the “TGI HT-29” value ([8]; SRB assay, 48 hours exposure) was 1.87E−05. For the same compound, the GI50 [9, 16] was 1.03 µM, the CC50 ([9]; read-out: LC50 A-549, SRB assay, 48 hours exposure) was 18.7 µM and the “TGI A-549” value ([9]; SRB assay, 48 hours exposure) was 6.95E−06. For the same compound, the GI50 ([10]; Homo sapiens, LNCaP, 48 h, read-out: GI50 LN-caP, SRB assay, 48 hours exposure) was 0.415 µM, the CC50 ([10]; Homo sapiens, LNCaP, 48 h, read-out: LC50 LN-caP, SRB assay, 48 hours exposure) was 1.59 µM and the “TGI LN-caP” value ([10]; SRB assay, 48 hours exposure) was 8.13E−07. For the same compound, the GI50 ([11]; Homo sapiens, SK-MEL-28, 48 h, read-out: GI50 MEL-28, SRB assay, 48 hours exposure) was 1.43 µM, the CC50 ([11]; Homo sapiens, SK-MEL-28, 48 h, read-out: LC50 MEL-28, SRB assay, 48 hours exposure) was 11.2 µM and the “TGI MEL-28” value ([11]; SRB assay, 48 hours exposure) was 4.17E−06. For the same compound, the GI50 ([12]; Homo sapiens, 48 h, read-out: GI50 IGROV-ET, SRB assay, 48 hours exposure) was 1.4 µM, the CC50 ([12]; Homo sapiens, 48 h, read-out: LC50 IGROV-ET, SRB assay, 48 hours exposure) was 18.7 µM and the “TGI IGROV-ET” value ([12]; SRB assay, 48 hours exposure) was 6.74E−06. For the same compound, the GI50 ([13]; Homo sapiens, SK-BR-3, 48 h, read-out: GI50 SK-BR-3, SRB assay, 48 hours exposure) was 0.562 µM, the CC50 ([13]; Homo sapiens, SK-BR-3, 48 h, read-out: LC50 SK-BR-3, SRB assay, 48 hours exposure) was 18.7 µM and the “TGI SK-BR-3” value ([13]; SRB assay, 48 hours exposure) was 1.36E−06. The GI50 ([14]; Homo sapiens, PANC-1, 48 h, read-out: GI50 PANC-1, SRB assay, 48 hours exposure) was 5.85 µM, the CC50 ([14]; Homo sapiens, PANC-1, 48 h, read-out: LC50 PANC-1, SRB assay, 48 hours exposure) was 18.7 µM and the “TGI PANC-1” value ([14]; SRB assay, 48 hours exposure) was 1.87E−05.

In the case of Nc1nccc2c(-c3ccccc3)c3cccnc3n12 [Compound 63], the GI50 [1, 17] is reported as no less than 38.4 µM, the “H-MEC-1 TGI” value [1] is reported as 3.84E−05 and the CC50 at 48 h ([2]; H-MEC-1 LC50, SRB assay) is reported as no less than 38.4 µM. For the same compound, the GI50 [8, 18] was no less than 38.4 µM, the CC50 [8, 19] was no less than 38.4 µM and the “HT-29 TGI” value ([8]; SRB assay, 48 hours exposure) was 3.84E−05. The GI50 [9, 20] was no less than 38.4 µM, the CC50 [9, 21] was no less than 38.4 µM and the “A-549 TGI” value ([9]; SRB assay, 48 hours exposure) was 3.84E−05.

With COc1cccc(-c2c3cccnc3n3c(SC)nccc23)c1 [Compound 57] the GI50 [1, 15] was 31.1 µM, the “TGI H-MEC-1” value [1] was 3.11E−05 and the CC50 at 48 h ([2]; LC50 H-MEC-1, SRB assay) was 31.1 µM. The GI50 [8, 18] was 31.1 µM, the CC50 [8, 19] was 31.1 µM and the “HT-29 TGI” value ([8]; SRB assay, 48 hours exposure) was 3.11E−05. For the same compound, the CC50 [9, 21] was 31.1 µM, the GI50 [9, 16] was 22.5 µM and the “A-549 TGI” value ([9]; SRB assay, 48 hours exposure) was 3.11E−05.

In the case of COc1cccc(-c2c3cccnc3n3c(N)nccc23)c1.Cl [Compound 67], the GI50 [1, 15] is reported as 30.6 µM, the “TGI H-MEC-1” value [1] is reported as 3.06E−05 and the CC50 at 48 h ([2]; LC50 H-MEC-1, SRB assay) is reported as 30.6 µM. For the same compound, the GI50 [8, 18] was 30.6 µM, the CC50 [8, 19] was 30.6 µM and the “HT-29 TGI” value ([8]; SRB assay, 48 hours exposure) was 3.06E−05. The CC50 [9, 21] was 30.6 µM, the GI50 [9, 16] was 30.6 µM and the “A-549 TGI” value ([9]; SRB assay, 48 hours exposure) was 3.06E−05.

In the case of Nc1nccc2c(-c3ccncn3)c3cccnc3n12 [Compound 70], the GI50 [1, 17] is reported as 0.119 µM, the “H-MEC-1 TGI” value [1] is reported as 3.93E−07 and the CC50 at 48 h ([2]; H-MEC-1 LC50, SRB assay) is reported as 4 µM. For the same compound, the GI50 [8, 18] was 0.0381 µM, the CC50 [8, 19] was 38.1 µM and the “HT-29 TGI” value ([8]; SRB assay, 48 hours exposure) was 3.81E−06. For the same compound, the GI50 [9, 20] was 0.182 µM, the CC50 [9, 21] was 3.35 µM and the “A-549 TGI” value ([9]; SRB assay, 48 hours exposure) was 5.60E−07.

With Cc1nccc(-c2c3cccnc3n3c(N)nccc23)n1 [Compound 75] the GI50 [1, 17] was 1.43 µM, the “H-MEC-1 TGI” value [1] was 8.00E−06 and the CC50 at 48 h ([2]; H-MEC-1 LC50, SRB assay) was 36.2 µM. For the same compound, the GI50 [8, 18] was 5.79 µM, the CC50 [8, 19] was 36.2 µM and the “HT-29 TGI” value ([8]; SRB assay, 48 hours exposure) was 3.62E−05. The GI50 [9, 20] was 4.2 µM, the CC50 [9, 21] was 21.3 µM and the “A-549 TGI” value ([9]; SRB assay, 48 hours exposure) was 9.45E−06.
